Experimental data as given in a melting point compilation (Tetko et al.; mined from patent text by program, amines drawn as free bases though some values may be those of a salt).

SMILES	melting point
Nc1ccc2ncnc(Nc3ccc(OCc4ccccc4)cc3)c2c1	173 to 175 °C
Nc1c(C(=O)c2ccccc2OCc2ccccc2)oc2ccc(Cl)cc12	158 to 160 °C
CCCCCNC(=NC#N)Nc1cccnc1	130 to 132 °C
CC(=O)NC[C@H]1CN(c2ccc(N3CCC4(CC3)CS4)c(F)c2)C(=O)O1	152 to 154 °C
CC(=O)N1CCN(CC#CCn2cncc2C)C1=O	93 to 95 °C
CC1COC(c2cnc(C3=NC(C)(C(C)C)C(=O)N3)c(C(=O)O)c2)O1 (stereo not given)	50 to 62 °C
CCOC(=O)c1cn(C)c2c(=O)c3ccccc3oc2c1=O	251 to 254 °C
CCCCCC(Oc1ccc(C2=CCCCCC2)cc1)C(=O)O (stereo not given)	69 to 71 °C
c1ccc2c(SCc3ccncc3)ncnc2c1	117 to 118 °C
OC(CCc1ccc2c(c1)OCO2)C1CC1 (stereo not given)	64 to 65 °C
CC(C)OC(=O)COc1ccc(C(=O)CN2CCN(c3ccncc3)CC2)cc1	64 to 66 °C
Cc1noc2cc3c(cc12)C1(CO3)C(=O)N(Cc2ccc(C(F)(F)F)o2)c2ccccc21 (stereo not given)	111 to 112 °C
NNc1cc(=O)[nH]c(N)n1	314 to 315 °C
CCc1cc(Oc2ccc(S(C)(=O)=O)nc2)cc2cc(C3=NCC(CC(=O)NC)S3)[nH]c12 (stereo not given)	189 to 190 °C
CCCn1c(=O)c2[nH]c(CCCc3ccccc3)nc2n(CCC)c1=O	137 to 138 °C
Cc1c(COC(=O)N(c2ccccc2)c2ccccc2)cccc1OCC(=O)O	180 to 181 °C
CN(C(N)=S)c1ccc(-c2ncn(-c3ccc(OC(F)(F)F)cc3)n2)cc1	142 to 152 °C
CC1CC(=O)NN=C1c1ccc2nc(C3CC3)n(Cc3ccc(-c4ccccc4-c4nnn[nH]4)cc3)c2c1 (stereo not given)	216 °C
CC(=O)c1cccc(OCCCCCC(=O)O)c1	70 to 72 °C
O=C(Nc1ccc(Cl)cn1)c1cc(Cl)ccc1NCC1CCN(C2CCCCC2)CC1	186 to 188 °C
COCOc1ccc(Cl)c(F)c1C=O	44 to 49 °C
CCc1nc2ccc(Cl)cc2c(=O)n1CCCn1ccnc1	147 to 149 °C
N#Cc1c2c(c3c(c1N1CCCCC1)Cc1ccccc1-3)-c1ccccc1C2	200 to 202 °C
Cn1c2ccccc2c2c(C(=O)O)c(C(=O)O)ccc21	294 °C
Cn1cc(-c2ccnc(Cl)n2)c(-c2ccc(Cl)cc2Cl)n1	165 to 166 °C

SMILES	melting point
Oc1ccc(SSc2ccc(O)cc2)cc1	144 to 146 °C
O=C(NC(Cc1ccccc1)C(=O)O)OCc1cc2cc(-c3cncnc3)ccc2o1 (stereo not given)	192 °C
CC(C)Oc1ccc(-n2c(C(=O)NCC(=O)O)c(Cl)c3cc(Oc4ccc(C(F)(F)F)cc4)ccc32)cc1	94 to 96 °C
C[C@H]1CN(c2c(F)cc3c(=O)c(C(=O)O)cn4c3c2CCN4C)C[C@H]1NC(=O)CNC(=O)OC(C)(C)C (relative stereo)	142 to 145 °C
CN1CC=C(c2c[nH]c3cc(Cl)c(Cl)cc23)CC1	255 to 257 °C
O=C1SCC(O)=C1Cc1ccc2ccccc2c1Br	205 to 206 °C
O=C(CCCl)Nc1cccc(NC(=O)Nc2ccc(N(CCCl)CCCl)cc2)c1	232 to 233 °C
CCOc1nc(C)nc(N2CCN(c3ccc(F)cc3)CC2)c1[N+](=O)[O-]	116 to 119 °C
Cc1c(F)cccc1Cc1c(-c2ccccc2)c2ccccn2c1C(=O)N1CCN(C(=O)OC(C)(C)C)[C@@H](CCO[Si](C)(C)C(C)(C)C)C1	70 °C
O=C1NCCN=C1c1ccc(F)cc1	118 to 120 °C
CC(C)=CCC/C(C)=C/CC/C(C)=C/C(N)=O	53 to 53.5 °C
C[C@@H](O)COc1c(N)ccc(F)c1F	47 to 48 °C
N#Cc1ccc(-c2ccc(I)cc2)cc1	162 to 168 °C
CC(=O)NC[C@H]1CN(c2ccc(-n3nccc3-c3cccnc3)c(F)c2)C(=O)O1	83.7 to 85.9 °C
CC(C)(C)OC(=O)n1cccc1-c1ccc2c(c1)C(C)(C)C(=O)N2	168 to 170 °C
CC(C)COc1ccccc1-c1ncc(-c2nnn[nH]2)c(=O)[nH]1	230 to 231 °C
CC(=O)N1CCC(=O)C(C(c2ccc(Cl)cc2)c2ccc(Cl)cc2)C1 (stereo not given)	169 to 171 °C
Oc1ccc2cc(-c3nc4cc(O)ccc4o3)ccc2c1	288 to 290 °C
O=C(O)Cc1c(C(=O)c2ccc(O)cc2)[nH]c2cc(Cl)ccc12	231 to 234 °C
CC(=O)OCCn1ccc(=O)c(O)c1Cc1ccc(C)cc1	205 to 206 °C
CC(C)Oc1ccc(N)c(CC#N)n1	83 to 85 °C
CCCCN(C)C(=O)CS(=O)CCCCCCOc1ccc(C2=C(c3ccccc3)CCCc3cc(O)ccc32)cc1 (stereo not given)	72 to 73 °C
CC(C)Oc1nc(N)nc2ccc(-c3ccc(F)cc3)nc12	191 to 192 °C
COC(=O)c1cc(-c2ccc(OC)c(Cl)c2)nn(CC2CC2)c1=O	101 to 104 °C
CC(=O)SCC(C(=O)NC(CC(=O)O)Cc1ccccc1)C(F)(F)F (stereo not given)	171 to 172 °C

SMILES	melting point
Fc1ccc2c(c1)Oc1ccccc1S2	77.5 to 79 °C
CC1(c2ccc(C#N)cc2)C(=O)N(Cc2ccc(F)cc2)Cc2cncn21 (stereo not given)	66 to 70 °C
Cn1c(CC#N)ccc1C(=O)c1ccc(Cl)cc1	120 to 124 °C
O=Cc1cc2c3ccccc3ccc2c2ccccc12	167 to 169 °C
CC(C)CC(OC(=O)c1ccncc1)C(=O)OCc1ccccc1 (racemic)	49 to 50 °C
O=C(O)CON(Cc1ccc(F)cc1)C(=O)C=C(O)C(=O)O	135 to 138 °C
CCC1(COCCCCCCOc2ccc(C(=O)O)cc2)COC1	58.5 °C
Cc1c(NC(=O)C(CSC(=O)C(C)(C)C)Cc2ccccc2)cccc1C(=O)O (stereo not given)	117 to 120 °C
Cc1cccc(C(=O)NC(CC(C)C)C(=O)O)c1SSc1c(C)cccc1C(=O)NC(CC(C)C)C(=O)O (stereo not given)	210 to 211 °C
CC[C@@H](C)[C@H](CC(C(=O)O)C(=O)O)C(=O)OC	98 °C
O=S(=O)(CCCl)CCC(F)(F)C(F)(F)C(F)(F)C(F)(F)C(F)(F)C(F)(F)C(F)(F)C(F)(F)F	130 to 131 °C
O=C(O)CCC(=O)Nc1ccc(C(=O)N2CCCCc3ccccc32)cc1	192 °C
COc1ccccc1-c1ccn(C(C)C(=O)N(C)C)n1 (stereo not given)	92 to 94 °C
O=C1N(Cc2ncc(F)cc2F)c2ccccc2C12COc1cc3c(cc12)OCCO3 (stereo not given)	220 to 222 °C
Cc1cn(C)c2c1N(C(=O)CN(C)C)c1ccccc1NC2=O	219 to 220 °C
NC(=O)C1=NN(c2cccc(COc3ccccc3)c2)C(c2ccccc2F)N1 (stereo not given)	176 to 178 °C
CCCCN1C(=O)NC(CCC(=O)O)C1=O (stereo not given)	130 °C
CCOC(=O)/C=C/C(=C(c1ccc(F)cc1)c1ccc(F)cc1)C(C)C	66 to 67 °C
Cc1ccc(C(=O)Nc2cccc(C(F)(F)F)c2)cc1-c1ccc2cnncc2c1	270 to 272 °C
CCCCC(=N)NC(=O)Nc1ccc(N)cc1	102 to 103 °C
Clc1nc2cc(Cl)c(Cl)c(Cl)c2[nH]1	243 to 244 °C
CCOC(=O)c1ccc(CN2C(=O)c3ccccc3C2=O)o1	108 to 109 °C
CCOC(=O)C(C)c1ccc(NC2OC(=O)c3ccccc32)cc1 (stereo not given)	136 to 139 °C
COc1nc2c(c(OC)n1)C(c1ccc(F)c(OC)c1)C1=C(COC1=O)N2 (stereo not given)	267 to 270 °C
Cn1nc2c(N)nc3ccccc3c2c1CCCCCl	188 to 189 °C

SMILES	melting point
CCCCN=C(O)c1c(Sc2ccccc2)c(Sc2ccccc2)c(Sc2ccccc2)c(Sc2ccccc2)c1C(=O)O	159 to 160 °C
Cc1cc(-c2ccc(C(F)(F)F)cc2)cn2c(-c3nc(-c4ccc(N)nc4)no3)cnc12	257 °C
COc1ccc(N2CCN(c3ccc(N)cc3)CC2)cn1	111 °C
O=c1c(-c2cccs2)nc2ccccc2n1CC1CCCO1 (stereo not given)	123 °C
Nc1cccc(-c2ccc(CCN3CCC4(CCCC4)CC3)cc2)n1	130 to 132 °C
Cc1c(C)c2c(c(C)c1NS(C)(=O)=O)C(c1ccc(C(C)C)cc1)CO2 (stereo not given)	132 to 133 °C
N=C(Nc1cc(NC(=O)/C=C/c2ccccc2C(F)(F)F)ccc1Cl)c1ccccc1	188 to 189 °C
CO[C@H]1O[C@@H](C)[C@@H]2C(=O)[C@H]3CCCC[C@@H]3C[C@H]12	86 to 87 °C
COCn1ccnc1C(O)(c1ccccc1)c1ccc(F)cc1 (stereo not given)	150 °C
CSC(=NC#N)NCCSCc1cccnc1Nc1ccccc1	120 to 123 °C
Cn1cc(C(=O)NCc2ccc(C#N)cc2)c(=O)c2cc(C#CCO)ccc21	230 to 232 °C
COc1ccc(-c2cccn2-c2ccc(S(C)(=O)=O)cc2)cc1	183 to 184 °C
CNc1nc2ccccc2n1CCOS(C)(=O)=O	48 to 50 °C
CCOC(=O)c1cn(-c2nc(F)cs2)c2nc(N3CCC(NC(=O)OC(C)(C)C)C3)ccc2c1=O (stereo not given)	233 to 234 °C
COc1ccc(C2=CCCS(=O)C2)cc1OC1CCCC1 (stereo not given)	92 to 93 °C
CCN1c2ncc(CNc3cccc(N)c3)cc2C(=O)N(C)c2ccc(Cl)nc21	188 to 190 °C
COc1ccc2ccc(OC)c(C=O)c2c1	94 °C
Cc1nc2cc(NS(=O)(=O)c3cc(Cl)ccc3Cl)ccc2o1	194 °C
C1=CC2(c3ccccc3CP(Cc3ccccc3)Cc3ccccc3)OC2(CP(Cc2ccccc2)Cc2ccccc2)C2OC12 (stereo not given)	203 to 205 °C
CC(O)C1CCC(CNC(=O)OC(C)(C)C)CC1 (stereo not given)	75 to 76 °C
O=C(O)C(Cc1ccccc1)Oc1ccc2cc(-c3nc(-c4ccccc4)sc3Br)ccc2c1Br (stereo not given)	221 to 223 °C
Cc1c(O)cc(N2C(=O)c3ccccc3C2=O)cc1C(=O)OCc1ccc([N+](=O)[O-])cc1	210 to 244 °C
COc1c(C2CCN(CCCCNC(=O)c3ccc(-c4ccc(C#N)nc4)cc3)CC2)ccc2c1CCCC2	179 to 181 °C
N#Cc1cnn2c(C(F)(F)F)cc(-c3ccc(Cl)c(Cl)c3)nc12	206 °C
CCOc1cc2c(cc1OC)C(c1ccc(OC)c(OC)c1)=NN=C(C)C2CC (stereo not given)	125 to 127 °C
